Measurements published in patent US20120277298A1, “FLAVANONES-CONTAINING FOOD COMPOSITIONS” (NESTEC S.A., priority 2009, published 2012).

Experiment: Particle size distribution of hesperidin by laser diffraction (Malvern Mastersizer 2000)
Assay type: physicochemical
Procedure: The particle size distribution is observed using a microscopy optic LEICA DMR (mode Differential Interference Contrast and polarisation). The particle size distribution is measured by laser diffraction using a Malvern Mastersizer 2000.

COc1ccc([C@@H]2CC(=O)c3c(O)cc(O[C@@H]4O[C@H](CO[C@@H]5O[C@@H](C)[C@H](O)[C@@H](O)[C@H]5O)[C@@H](O)[C@H](O)[C@H]4O)cc3O2)cc1O [Commercially available hesperidin, hesperidin]
% of cumulative distribution of hesperidin particle size below 20 microns (0.1% hesperidin in water, Example 1): 40% | % of cumulative distribution < 20 microns of hesperidin in water (hesperidin in water, Example 4): Average 40%
